Measurements taken from patent US8937182B2, “Synthesis for thiazolidinedione compounds” (Metabolic Solutions Development Company, LLC, priority 2010, dated 2015).

These molecules were tested on KKA^Y mice (assay: Glucose, insulin and triglyceride in diabetic KKAy mice treated with exemplary compounds). Conditions: 93 mg/kg oral for 4 days, blood approx. 18 h after last dose, fasted, Vehicle A 24 (5).
Format: in vivo
Description: (§1) The insulin sensitizing and antidiabetic pharmacology are measured in the KKA^Y mice as previously reported [Hofmann, C., Lornez, K., and Colca, J. R. (1991). Glucose transport deficiency corrected by treatment with the oral anti-hyperglycemic agent Pioglitazone. Endocrinology, 129:1915-1925.] Compounds are formulated in 1% sodium carboxy methylcellulose, and 0.01% tween 20 and dosed daily by oral gavage.
Glucose, Insulin, and Triglyceride in Diabetic KKAy Mice Treated with Exemplary Compounds of the Present Invention.
as §1, with “129:1915-1925.].” for “129:1915-1925.]”
Compounds were formulated by suspension and orally dosed to KKA^Y mice at 93 mg/kg for 4 days. The compounds were first dissolved in DMSO and then placed into aqueous suspension containing 7-10% DMSO, 1% sodium methylcarboxycellulose, and 0.01% Tween 20. On the fifth day, the mice were fasted and blood samples were obtained approximately 18 hours after the last dose. The parameters were measured by standard assay methods. Data are mean and SEM N=6-12 mice.

| Compound | Insulin (Mean/SD) |
| --- | --- |
| O=C1NC(=O)C(Cc2ccc(OCC(=O)c3cccc(Cl)c3)cc2)S1 (stereo not drawn) [Compound 7, 5-{4-[2-(3-chlorophenyl)-2-oxoethoxy]benzyl}-1,3-thiazolidine-2,4-dione] | 0.59 |
| COc1ccc(C(=O)COc2ccc(CC3SC(=O)NC3=O)cc2)cc1 (stereo not drawn) [Compound 9, 5-{4-[2-(4-methoxyphenyl)-2-oxoethoxy]benzyl}-1,3-thiazolidine-2,4-dione] | 0.76 |
| O=C1NC(=O)C(Cc2ccc(OCC(=O)c3cccc(F)c3)cc2)S1 (stereo not drawn) [Compound 4, 5-{4-[2-(3-fluorophenyl)-2-oxoethoxy]benzyl}-1,3-thiazolidine-2,4-dione] | 0.24 |
| O=C1NC(=O)C(Cc2ccc(OCC(=O)c3ccc(F)cc3)cc2)S1 (stereo not drawn) [Compound 2, 5-{4-[2-(4-fluorophenyl)-2-oxoethoxy]benzyl}-1,3-thiazolidine-2,4-dione] | 0.10 |
| O=C1NC(=O)C(Cc2ccc(OCC(=O)c3ccccc3F)cc2)S1 (stereo not drawn) [Compound 3, 5-{4-[2-(2-fluorophenyl)-2-oxoethoxy]benzyl}-1,3-thiazolidine-2,4-dione] | 0.20 |
| O=C1NC(=O)C(Cc2ccc(OCC(=O)c3ccccc3Cl)cc2)S1 (stereo not drawn) [Compound 8, 5-{4-[2-(2-chlorophenyl)-2-oxoethoxy]benzyl}-1,3-thiazolidine-2,4-dione] | 0.47 |
